Data published in patent publication US20220389007A1, “INHIBITORS OF HUMAN IMMUNODEFICIENCY VIRUS REPLICATION” (VIIV HEALTHCARE UK (No. 5) LIMITED, priority 2019, published 2022).

Columns and labels:
recombinant NL4-3 virus = assay: HIV cell culture assay (antiviral activity, luciferase readout); type: cell-based; details: Human immunodeficiency virus 1, NL43, MT2, MT-2 cells infected for 4-5 days with recombinant NL4-3 virus carrying Renilla luciferase
Method in brief: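 MT-2 cells infected for 4-5 days with NL4-3 reference virus carrying Renilla luciferase in place of part of nef, in presence of serial compound dilutions. Luciferase read with live-cell substrate; EC50 from median effect equation fit.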

[1] = Compound cytotoxicity, XTT-based colorimetric assay; type: cell-based; details: human; uninfected MT2 cells, day 4, XTT assay
Method in brief: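 Run under the antiviral-assay protocol but without virus. Viability was read on day 4 and CC50 values were derived from the readout.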

SMILES	EC50 (recombinant NL4-3 virus)	CC50 at 4 day [1]
Cn1nc(NS(C)(=O)=O)c2c(Cl)ccc(-n3c([C@H](Cc4cc(F)cc(F)c4)NC(=O)Cn4nc(C(F)F)c5c4C(F)(F)[C@@H]4C[C@H]54)nc4nc(-c5nccc(C(F)(F)F)n5)ccc4c3=O)c21 (atropisomer, axis not shown; (P)) [Example 5, N-((S)-1-((3P)-3-(4-chloro-1-methyl-3-(methylsulfonamido)-1H-indazol-7-yl)-4-oxo-7-(4-(trifluoromethyl)pyrimidin-2-yl)-3,4-dihydropyrido[2,3-d]pyrimidin-2-yl)-2-(3,5-difluorophenyl)ethyl)-2-((3bS,4aR)-3-(difluoromethyl)-5,5-difluoro-3b,4,4a,5-tetrahydro-1H-cyclopropa[3,4]cyclopenta[1,2-c]pyrazol-1-yl)acetamide]	21 pM	> 100000 pM
Cc1nccnc1-c1ccc2c(=O)n(-c3ccc(Cl)c4c(NS(C)(=O)=O)nn(C)c34)c([C@H](Cc3cc(F)cc(F)c3)NC(=O)Cn3nc(C(F)F)c4c3C(F)(F)[C@@H]3C[C@H]43)nc2n1 (atropisomer, axis not shown; (P)) [Example 7, N-((S)-1-((3P)-3-(4-chloro-1-methyl-3-(methylsulfonamido)-1H-indazol-7-yl)-7-(3-methylpyrazin-2-yl)-4-oxo-3,4-dihydropyrido[2,3-d]pyrimidin-2-yl)-2-(3,5-difluorophenyl)ethyl)-2-((3bS,4aR)-3-(difluoromethyl)-5,5-difluoro-3b,4,4a,5-tetrahydro-1H-cyclopropa[3,4]cyclopenta[1,2-c]pyrazol-1-yl)acetamide]	20 pM	> 100000 pM
Cn1nc(NS(C)(=O)=O)c2c(Cl)ccc(-n3c([C@H](Cc4cc(F)cc(F)c4)NC(=O)Cn4nc(C(F)F)c5c4C(F)(F)[C@@H]4C[C@H]54)nc4nc(-c5ccnnc5)ccc4c3=O)c21 (atropisomer, axis not shown; (P)) [Example 33, N-((S)-1-((3P)-3-(4-chloro-1-methyl-3-(methylsulfonamido)-1H-indazol-7-yl)-4-oxo-7-(pyridazin-4-yl)-3,4-dihydropyrido[2,3-d]pyrimidin-2-yl)-2-(3,5-difluorophenyl)ethyl)-2-((3bS,4aR)-3-(difluoromethyl)-5,5-difluoro-3b,4,4a,5-tetrahydro-1H-cyclopropa[3,4]cyclopenta[1,2-c]pyrazol-1-yl)acetamide]	450 pM	> 100000 pM
Cn1nc(NS(C)(=O)=O)c2c(Cl)ccc(-n3c([C@H](Cc4cc(F)cc(F)c4)NC(=O)Cn4nc(C(F)F)c5c4C(F)(F)[C@@H]4C[C@H]54)nc4nc(-c5ccc(F)c(C(F)(F)F)c5)ccc4c3=O)c21 (atropisomer, axis not shown; (P)) [Example 19, N-((S)-1-((3P)-3-(4-chloro-1-methyl-3-(methylsulfonamido)-1H-indazol-7-yl)-7-(4-fluoro-3-(trifluoromethyl)phenyl)-4-oxo-3,4-dihydropyrido[2,3-d]pyrimidin-2-yl)-2-(3,5-difluorophenyl)ethyl)-2-((3bS,4aR)-3-(difluoromethyl)-5,5-difluoro-3b,4,4a,5-tetrahydro-1H-cyclopropa[3,4]cyclopenta[1,2-c]pyrazol-1-yl)acetamide]	230 pM	> 100000 pM
Cn1nc(NS(C)(=O)=O)c2c(Cl)ccc(-n3c([C@H](Cc4cc(F)cc(F)c4)NC(=O)Cn4nc(C(F)F)c5c4C(F)(F)[C@@H]4C[C@H]54)nc4ncc(-c5cccc(C(F)F)n5)cc4c3=O)c21 (atropisomer, axis not shown; (P)) [Example 3, N-((S)-1-((3P)-3-(4-chloro-1-methyl-3-(methylsulfonamido)-1H-indazol-7-yl)-6-(6-(difluoromethyl)pyridin-2-yl)-4-oxo-3,4-dihydropyrido[2,3-d]pyrimidin-2-yl)-2-(3,5-difluorophenyl)ethyl)-2-((3bS,4aR)-3-(difluoromethyl)-5,5-difluoro-3b,4,4a,5-tetrahydro-1H-cyclopropa[3,4]cyclopenta[1,2-c]pyrazol-1-yl)acetamide]	51 pM	> 100000 pM
Cn1nc(NS(C)(=O)=O)c2c(Cl)ccc(-n3c([C@H](Cc4cc(F)cc(F)c4)NC(=O)Cn4nc(C(F)F)c5c4C(F)(F)[C@@H]4C[C@H]54)nc4nc(-c5ccccc5C(F)(F)F)ccc4c3=O)c21 (atropisomer, axis not shown; (P)) [Example 25, N-((S)-1-((3P)-3-(4-chloro-1-methyl-3-(methylsulfonamido)-1H-indazol-7-yl)-4-oxo-7-(2-(trifluoromethyl)phenyl)-3,4-dihydropyrido[2,3-d]pyrimidin-2-yl)-2-(3,5-difluorophenyl)ethyl)-2-((3bS,4aR)-3-(difluoromethyl)-5,5-difluoro-3b,4,4a,5-tetrahydro-1H-cyclopropa[3,4]cyclopenta[1,2-c]pyrazol-1-yl)acetamide]	60 pM	> 100000 pM
CC(C)Cn1nccc1-c1ccc2c(=O)n(-c3ccc(Cl)c4c(NS(C)(=O)=O)nn(C)c34)c([C@H](Cc3cc(F)cc(F)c3)NC(=O)Cn3nc(C(F)F)c4c3C(F)(F)[C@@H]3C[C@H]43)nc2n1 (atropisomer, axis not shown; (P)) [Example 69, N-((S)-1-((3P)-3-(4-chloro-1-methyl-3-(methylsulfonamido)-1H-indazol-7-yl)-7-(1-isobutyl-1H-pyrazol-5-yl)-4-oxo-3,4-dihydropyrido[2,3-d]pyrimidin-2-yl)-2-(3,5-difluorophenyl)ethyl)-2-((3bS,4aR)-3-(difluoromethyl)-5,5-difluoro-3b,4,4a,5-tetrahydro-1H-cyclopropa[3,4]cyclopenta[1,2-c]pyrazol-1-yl)acetamide]	99 pM	> 100000 pM
Cn1nc(NS(C)(=O)=O)c2c(Cl)ccc(-n3c([C@H](Cc4cc(F)cc(F)c4)NC(=O)Cn4nc(C(F)F)c5c4C(F)(F)[C@@H]4C[C@H]54)nc4nc(-c5ccc(OC(F)(F)F)cc5)ccc4c3=O)c21 (atropisomer, axis not shown; (P)) [Example 26, N-((S)-1-((3P)-3-(4-chloro-1-methyl-3-(methylsulfonamido)-1H-indazol-7-yl)-4-oxo-7-(4-(trifluoromethoxy)phenyl)-3,4-dihydropyrido[2,3-d]pyrimidin-2-yl)-2-(3,5-difluorophenyl)ethyl)-2-((3bS,4aR)-3-(difluoromethyl)-5,5-difluoro-3b,4,4a,5-tetrahydro-1H-cyclopropa[3,4]cyclopenta[1,2-c]pyrazol-1-yl)acetamide]	510 pM	> 100000 pM
Cn1nc(NS(C)(=O)=O)c2c(Cl)ccc(-n3c([C@H](Cc4cc(F)cc(F)c4)NC(=O)Cn4nc(C(F)F)c5c4C(F)(F)[C@@H]4C[C@H]54)nc4nc(-c5ccn(CCCC(F)(F)F)n5)ccc4c3=O)c21 (atropisomer, axis not shown; (P)) [Example 85, N-((S)-1-((3P)-3-(4-chloro-1-methyl-3-(methylsulfonamido)-1H-indazol-7-yl)-4-oxo-7-(1-(4,4,4-trifluorobutyl)-1H-pyrazol-3-yl)-3,4-dihydropyrido[2,3-d]pyrimidin-2-yl)-2-(3,5-difluorophenyl)ethyl)-2-((3bS,4aR)-3-(difluoromethyl)-5,5-difluoro-3b,4,4a,5-tetrahydro-1H-cyclopropa[3,4]cyclopenta[1,2-c]pyrazol-1-yl)acetamide]	96 pM	> 100000 pM
Cn1nc(NS(C)(=O)=O)c2c(Cl)ccc(-n3c([C@H](Cc4cc(F)cc(F)c4)NC(=O)Cn4nc(C(F)F)c5c4C(F)(F)[C@@H]4C[C@H]54)nc4nc(-c5ccnn5C5CC5)ccc4c3=O)c21 (atropisomer, axis not shown; (P)) [Example 77, N-((S)-1-((3P)-3-(4-chloro-1-methyl-3-(methylsulfonamido)-1H-indazol-7-yl)-7-(1-cyclopropyl-1H-pyrazol-5-yl)-4-oxo-3,4-dihydropyrido[2,3-d]pyrimidin-2-yl)-2-(3,5-difluorophenyl)ethyl)-2-((3bS,4aR)-3-(difluoromethyl)-5,5-difluoro-3b,4,4a,5-tetrahydro-1H-cyclopropa[3,4]cyclopenta[1,2-c]pyrazol-1-yl)acetamide]	73 pM	> 100000 pM
Cn1nc(NS(C)(=O)=O)c2c(Cl)ccc(-n3c([C@H](Cc4cc(F)cc(F)c4)NC(=O)Cn4nc(C(F)F)c5c4C(F)(F)[C@@H]4C[C@H]54)nc4nc(-c5nccc(C(F)F)n5)ccc4c3=O)c21 (atropisomer, axis not shown; (P)) [Example 6, N-((S)-1-((3P)-3-(4-chloro-1-methyl-3-(methylsulfonamido)-1H-indazol-7-yl)-7-(4-(difluoromethyl)pyrimidin-2-yl)-4-oxo-3,4-dihydropyrido[2,3-d]pyrimidin-2-yl)-2-(3,5-difluorophenyl)ethyl)-2-((3bS,4aR)-3-(difluoromethyl)-5,5-difluoro-3b,4,4a,5-tetrahydro-1H-cyclopropa[3,4]cyclopenta[1,2-c]pyrazol-1-yl)acetamide]	23 pM	> 100000 pM
Cn1nc(NS(C)(=O)=O)c2c(Cl)ccc(-n3c([C@H](Cc4cc(F)cc(F)c4)NC(=O)Cn4nc(C(F)F)c5c4C(F)(F)[C@@H]4C[C@H]54)nc4nc(-c5ccn(CCCF)n5)ccc4c3=O)c21 (atropisomer, axis not shown; (P)) [Example 87, N-((S)-1-((3P)-3-(4-chloro-1-methyl-3-(methylsulfonamido)-1H-indazol-7-yl)-7-(1-(3-fluoropropyl)-1H-pyrazol-3-yl)-4-oxo-3,4-dihydropyrido[2,3-d]pyrimidin-2-yl)-2-(3,5-difluorophenyl)ethyl)-2-((3bS,4aR)-3-(difluoromethyl)-5,5-difluoro-3b,4,4a,5-tetrahydro-1H-cyclopropa[3,4]cyclopenta[1,2-c]pyrazol-1-yl)acetamide]	36 pM	> 100000 pM
